These results are taken from PMC7144325, “Discovery of novel ATAD2 bromodomain inhibitors that trigger apoptosis and autophagy in breast cells by structure-based virtual screening” (Journal of Enzyme Inhibition and Medicinal Chemistry, 2020).

pIC50: −log10 of the molar value. Entries after “also recorded” stand apart in the source; their conditions may differ. Like-named read-outs stand apart in the source and are kept apart here.

Details of assay [1]: method as in PMID 27530368. As to conditions: in vivo as printed; cited from earlier work.
Details of assay [2]: method as in PMID 29043777, PMID 30226378, PMID 31398032. To be noted: in vitro or vivo cellular assays; cited from earlier work.
The target in assay [3] is T1, ATAD2 bromodomain (Homo sapiens, UniProt Q6PL18).
T1 sequence (Q6PL18 980-1092 limits assumed): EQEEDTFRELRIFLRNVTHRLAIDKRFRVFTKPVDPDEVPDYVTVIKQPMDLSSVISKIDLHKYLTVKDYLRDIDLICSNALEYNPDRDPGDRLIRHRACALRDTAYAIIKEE
The experiment in a line: TR-FRET assay, ATAD2 bromodomain. Format: binding. The procedure: (§1) The assay was performed by TR-FRET technology using recombinant bromodomain and BET Ligand[27]. The compounds were diluted in 100% DMSO. They were diluted 20 fold in 5% DMSO in Reaction Buffer and 2 µl of the dilution was added to a 20 µl reaction. The reaction mixture incubated for 180 min prior to reading the TR-FRET signal. TR-FRET was recorded as the ratio of the fluorescence of the acceptor and the donor dyes (acceptor/donor). Binding experiments were performed in duplicate at each concentration. The TR-FRET data were analysed using the computer software, Graphpad Prism.

Assay [4] has as its system MDA-MB-231 cells. The experiment in a line: Cell viability assay (MTT), MDA-MB-231. Format: cell-based. As to conditions: for antiproliferatory inhibition rate in cell viability assay: at 20 µM, MDA-MB-231 cells; for pIC50: Homo sapiens, MDA-MB-231, MTT, read-out: IC50 antiproliferative, MDA-MB-231. The protocol: MDA-MB-231cells were purchased from American Type Culture Collection (ATCC, Manassas, VA, USA). Cells were cultured in DMEM with 10% foetal bovine serum and incubated with 5% CO2. Antibodies used in this study were as follow: ATAD2 (ab176319, abcam), c-Myc (ab32072, abcam), cMyc^Ser62 (ab51156, abcam), Bax(5023, CST), Bcl-2(15071, CST), caspase8(9746, CST), caspase-3 (9665, CST), AKT (4691, CST), mTOR (2983, CST), p-mTOR^Ser2448 (5536,CST), ULK1 (6439, CST), p-ULK1^Ser555 (5869, CST), p62 (5114, CST), Beclin1 (4122, CST), LC3B (3868, CST), β-actin (3700, CST).
(§2) Cells were dispensed in 96-well plates at a density of 5 × 10^4 cells/ml. After 24 h incubation, cells were treated with different concentrations of compounds for the indicated periods. Cell viability was measured by the MTT assay.

For assay [5], the target named is T1, ATAD2 bromodomain. As to conditions: cited from earlier work.
Another assay has as its system BET. Details: method as in PMID 26230603. As to conditions: ATAD2 over BET; cited from earlier work.
Assay [6] concerns PI3K-AKT-mTOR signalling in MDA-MB-231 cells. The experiment in a line: Western blot of PI3K-AKT-mTOR signalling. Format: cell-based. As to conditions: MDA-MB-231, 1.25, 2.5, 5 µM, 24 h. The procedure:
(§3) Adherent and floating cells were collected after treatment with AM879 for indicated times. Cells were lysed in a lysis buffer consisting of Hepes 50 mM pH 7.4, Triton-X-100 1%, sodium orthovanada 2 mM, sodium fluoride 100 mM, edetic acid 1 mM, PMSF 1 mM, aprotinin (Sigma, MO, USA) 10 mg/L and leupeptin (Sigma) 10 mg/L at 4 °C for 1 h. After 12,000 rpm centrifugation for 15 min, the protein content of supernatant was determined by the Bio-Rad DC protein assay (Bio-Rad Laboratories, Hercules, CA, USA). Equal amounts of the total protein were separated by 10–15% SDS-PAGE and transferred to PVDF membranes, and the membranes were soaked in blocking buffer (5% skimmed milk or BSA). Proteins were detected using primary antibodies, followed by HRP-conjugated secondary antibody and visualised by using ECL as the HRP substrate. Quantity One 4.4 was used to quantify.

For another assay, the target named is T2, BRD4(2) (Homo sapiens, UniProt O60885).
T2 construct: against the first and second bromodomains of BRD2, BRD3 and BRD4
The experiment in a line: TR-FRET assay, BRD4(2). Format: binding. The procedure:
as §1

For the next assay, the target named is T3, BRD2(1) (Homo sapiens, UniProt P25440).
T3 construct: against the first and second bromodomains of BRD2, BRD3 and BRD4
T3 sequence (P25440 74-180 limits assumed): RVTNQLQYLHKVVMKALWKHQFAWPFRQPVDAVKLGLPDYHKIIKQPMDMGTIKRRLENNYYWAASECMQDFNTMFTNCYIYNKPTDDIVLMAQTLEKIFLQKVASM
The experiment in a line: TR-FRET assay, BRD2(1). Format: binding. The procedure: as §1

A further assay concerns BRD2-4. The experiment in a line: TR-FRET selectivity, statement for BRD2, BRD3 and BRD4 together. Format: binding. To be noted: first and second bromodomains. The procedure: as §1
A further assay addresses T4, BRD2(2) (Homo sapiens, UniProt P25440).
T4 construct: against the first and second bromodomains of BRD2, BRD3 and BRD4
The experiment in a line: TR-FRET assay, BRD2(2). Format: binding. The procedure: as §1

In assay [7] the test system is MDA-MB-231 cells. The experiment in a line: Autophagy assay, GFP/mRFP-LC3 puncta. Format: cell-based. As to conditions: MDA-MB-231, GFP-mRFP-LC3, 24 h.
Assay [8] deals with Bax, Bcl-2, Caspase8, Caspase3 in MDA-MB-231 cells. The experiment in a line: Western blot of Bax, Bcl-2, Caspase8 and Caspase3. Format: cell-based. As to conditions: MDA-MB-231, 1.25, 2.5 and 5 μM, 24 h. The procedure: as §3
The subject of assay [9] is ULK1, p-ULK1, Beclin 1, p62, LC3 in MDA-MB-231 cells. The experiment in a line: Western blot of ULK1, p-ULK1, Beclin 1, SQSTM1/p62 and LC3. To be noted: MDA-MB-231, 1.25, 2.5, 5 µM, 24 h. Format: cell-based. The protocol:
as §3

The next assay has as its target T5, BRD3(2) (Homo sapiens, UniProt Q15059).
T5 construct: against the first and second bromodomains of BRD2, BRD3 and BRD4
The experiment in a line: TR-FRET assay, BRD3(2). Format: binding. The protocol:
as §1

Assay [10] concerns ATAD2, c-Myc, p-cMyc in MDA-MB-231 cells. The experiment in a line: Western blot of ATAD2, c-Myc and p-cMyc. Format: cell-based. To be noted: MDA-MB-231, 1.25, 2.5 and 5.0 µM, 24 h. The protocol:
as §3

The test system of assay [11] is MDA-MB-231, MDA-MB-436, MDA-MB-468, BT474 and MCF-7 cells. The experiment in a line: Anti-proliferation activity on breast cancer cell panel (MTT). Format: cell-based. To be noted: MDA-MB-231, MDA-MB-436, MDA-MB-468, BT474 and MCF-7 cells (Figure S1). The protocol:
as §2

The next assay concerns the target T6, BRD3(1) (Homo sapiens, UniProt Q15059).
T6 construct: against the first and second bromodomains of BRD2, BRD3 and BRD4
The experiment in a line: TR-FRET assay, BRD3(1). Format: binding. The protocol: as §1

For assay [12], the system named is MDA-MB-231 cells. The experiment in a line: TUNEL apoptosis assay. Format: cell-based. To be noted: MDA-MB-231, 2.5 μM, 24 h. The protocol: TUNEL staining was also used to detect cell apoptosis. Cells were treated with DMSO or AM879 and then formalin-fixed.
The target in a further assay is T7, BRD4(1) (Homo sapiens, UniProt O60885).
T7 construct: against the first and second bromodomains of BRD2, BRD3 and BRD4
The experiment in a line: TR-FRET assay, BRD4(1). Format: binding. The procedure: as §1

The test system of assay [13] is MDA-MB-231 cells. The experiment in a line: Apoptosis assay, flow cytometry of Annexin-V/PI double staining. As to conditions: MDA-MB-231, 1.25, 2.5 and 5 μM, 24 h. Format: cell-based.

T5 sequence (Q15059 306-415 limits assumed): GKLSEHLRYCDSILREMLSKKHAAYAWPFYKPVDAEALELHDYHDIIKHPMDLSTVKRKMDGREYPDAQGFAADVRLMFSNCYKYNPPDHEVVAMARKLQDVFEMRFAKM
T4 sequence (P25440 344-453 limits assumed): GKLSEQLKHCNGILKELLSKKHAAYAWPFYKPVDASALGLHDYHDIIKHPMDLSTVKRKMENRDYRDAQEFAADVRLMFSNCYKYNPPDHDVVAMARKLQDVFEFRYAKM
T6 sequence (Q15059 34-140 limits assumed): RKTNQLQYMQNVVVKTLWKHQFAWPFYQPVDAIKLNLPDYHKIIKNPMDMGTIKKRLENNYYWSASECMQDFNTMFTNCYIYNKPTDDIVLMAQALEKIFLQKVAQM

Turning to `CO[C@H]1CNC[C@@H](OCC2CCC(F)(F)CC2)[C@@H]1Nc1ncc(-c2cncc(C)c2)c2cc(C)c(=O)[nH]c12` [GSK8814], the antiproliferative activity entry in [1] is “weak antiproliferative”.

In the case of `Cc1ccc(-c2cnc(NC3CC4CCC(N4)C3CCC3CCC(F)(F)CC3)c3[nH]c(=O)c(C)cc23)cn1` (stereo not shown) [compound 26], the “activity in cellular assays” value in [2] was “lack activity”.

As for `CCn1c(SCC(C)=O)nc2c1c(=O)[nH]c(=O)n2C` [AG-690], the inhibition at 20 µM on ATAD2 bromodomain [3] (at 20 µM, read-out: ATAD2 enzyme inhibition rate) is 79%. In the assay on MDA-MB-231 cells [4], the “antiproliferatory inhibition rate in cell viability assay” value is “less potency than AM879”.

Turning to `COc1cc(Cl)c(C(=O)N[C@@H](CN[C@H]2CC[C@@H](N)CC2)Cc2ccc(C#N)cc2)cc1-c1ccc(CN[C@H](C)c2ccc(C)cc2)o1` [BAY-850, reference compound], the pIC50 at ATAD2 bromodomain [3] (read-out: IC50 against ATAD2 bromodomain) was 6.62. For the same compound, the “activity in cellular assays” value in assay [2] is listed as “lack activity”.

Turning to `Cc1cncc(-c2cnc(N[C@@H]3CCNC[C@H]3OCC3CCS(=O)(=O)CC3)c3[nH]c(=O)c(C)cc23)c1` [compound 38], the ATAD2 potency on ATAD2 bromodomain [5] is recorded as 100 nM. Besides, the BET selectivity in the assay with BET was 100 fold.

With `CC1=C(C#N)c2nc(N)c(C#N)c(C)c2/C1=C\c1ccc(-c2cc(C(=O)O)ccc2Cl)o1` [AM879], the “PI3K-AKT-mTOR signalling protein expression” value in [6] was “obviously downregulated expression of PI3K, AKT, mTOR and mTOR^Ser2448”. In addition, the negative-log IC50 (pIC50) was less than 4.30 against BRD4(2); less than 4.30 against BRD2(1); less than 4.30 at BRD2(2); 5.45 at ATAD2 bromodomain [3] (Table 3, read-out: IC50 ATAD2); less than 4.30 against BRD3(2); less than 4.30 at BRD3(1). Also, the pIC50 in the assay with MDA-MB-231 cells [4] (24 h) is 5.61; in the assay on MDA-MB-231 cells [4] (48 h), 5.69; in the assay with MDA-MB-231 cells [4] (72 h), 5.98; against BRD4(1), less than 4.30. Besides, the “inhibitory activity against BRD2-4” value in the assay on BRD2-4 was “no inhibitory activity”; in the assay on BRD2-4 (listed as AM-879) it was “no activity”. The “autophagy induction (LC3 puncta)” value in the assay on MDA-MB-231 cells [7] is listed as “obvious aggregation of LC3 puncta”; with MDA-MB-231 cells [7] (listed as AM978), “induce autophagy”. In [8], the “expression of Bax, Bcl-2, Caspase8 and Caspase3” value was “elevated the expression of Bax, reduced the expression of Bcl-2, accompanied with the cleavage of caspase3 and caspase8”. Besides, the “expression of ULK1, p-ULK1, Beclin 1, SQSTM1/p62 and LC3-II” value in assay [9] was “elevation of ULK1, p-ULK1, Beclin 1 and LC3-II in a dose-dependent manner, as well as degradation of SQSTM1/p62”. The “expression of ATAD2, c-Myc and p-cMyc” value in assay [10] was “suppressed the expression of c-Myc; also recorded: inhibited the expression of ATAD2, c-Myc and the phosphorylation of c-Myc”. Also, the “anti-proliferation activity on breast cancer cells” value in assay [11] is listed as “potent antiproliferatory activity”. For the same compound, the “apoptosis by TUNEL assay” value with MDA-MB-231 cells [12] is given as “obvious FITC fluorescence were aggregated in the nucleus”. Moreover, the “antiproliferatory inhibition rate in cell viability assay” value with MDA-MB-231 cells [4] is reported as 90%. Further, in the assay on MDA-MB-231 cells [13], the “apoptotic cells by Annexin-V/PI staining” value was “significant increase in early and late apoptotic cells”.

As to `CC1(C2CC2)NC(=O)N(CC(=O)Nc2ccc(Br)c(S(=O)(=O)N3CCCCC3)c2)C1=O` (stereo not shown) [compound 23], in assay [2], the “activity in cellular assays” value is “lack activity”.
